Measurements taken from US10464957B2, “Oxidized lipids and methods of use thereof” (Vascular Biogenics Ltd., priority 2014, dated 2019).

Columns and labels:
TLR4 complex = biological target: T1, TLR4 complex (Homo sapiens, UniProt O00206+Q9Y6Y9); assay: LPS binding inhibition assay (biotin-LPS, FACS); conditions: biotin-LPS 100 ng/ml, FACS
T1 construct: endogenous in cells; probably the human primary monocytes of b454
Procedure: To assess interference with lipopolysaccharide (LPS) binding, VB-201 or VB-703 were incubated for 20 min with cells (10^6/ml) after which 100 ng/ml of biotin-LPS (InvivoGen) was added for an additional 15 minutes, all at 4° C. Cells were washed, resuspended in FACS buffer and analyzed on a FACS-Calibur device.

[1] = tested on: human monocytes (THP-1 cell line); assay: SDF1-induced cell migration trans-well assay; assay type: cell-based; conditions: 5 μg/ml, 20 min pretreatment
[2] = tested on: LPS (TLR4)-induced signaling in human monocytes (primary CD14+); assay: LPS (TLR4)-induced signaling, western blot; assay type: cell-based; conditions: western blot; for formation of p-IKK, p-ERK and p-p38 induced by LPS: 20 min pretreatment, 15 min activation with 100 ng/ml LPS
Procedure: (§1) Venous blood samples were obtained from healthy male donors in compliance with the Institutional Review Board at the Sheba Medical Center, Ramat Gan, Israel. PBMCs were isolated on Ficoll-Paque PLUS (GE Healthcare, Uppsala, Sweden) using 50 ml Leucosep tubes (Greiner Bio-One, Frickenhausen, Germany). Cells were washed in PBS (Kibbutz Beit Haemek, Israel) and incubated at 4° C. for 15 minutes in a buffer containing PBS and 0.5% bovine serum albumin (BSA) with human CD14 microbeads (Miltenyi Biotec, Bergisch Gladbach, Germany).
(§2) Cells (10^6/ml) were pretreated for 20 min with VB-201 (1-hexadecyl-2-(4′-carboxy)butyl-glycero-3-phosphocholine or 1-hexadecyl-2-(4′-carboxybutyl)-glycerol-3-phosphocholine) or VB-701 at the doses indicated in FIG. 2, or with solvent (Sol), followed by 15 min activation with 100 ng/ml lipopolysaccharide (LPS) or were untreated (Unt). Cells were washed and resuspended in lysis buffer containing 1:100 dithiothreitol (DTT), phosphatase and protease inhibitors (Thermo Scientific). Samples were loaded onto a precast Criterion TGX gel (Bio-Rad, Hemel Hempstead, UK) and transferred onto nitrocellulose membrane. Blots were blocked with 5% milk or BSA in Tris buffered saline and Tween 20 (TBST) for 1 h, followed by incubation with primary and secondary antibodies. Membranes were developed using an ECL kit (Thermo Scientific). The following antibodies were used for immunoblotting:
(§3) Primary antibodies: p-p38 (Cat. No. 4511; 1:1000) and p-IKK (Cat. No. 2697; 1:1000) were from Cell Signaling Technology (Danvers, Mass., USA). p-ERK1/2 (Cat. No. M8159; 1:10000) was purchased from Sigma (Israel). αTubulin (Tub) served as a loading control.
(§4) Secondary antibodies: HRP donkey anti-rabbit (1:5000) and HRP goat anti-mouse (1:3000) were from Jackson ImmunoResearch (West Grove, Pa., USA). HRP donkey anti-goat (1:5000) was from Santa Cruz Biotechnology.
as §2, with “VB-201” for “VB-201 (1-hexadecyl-2-(4′-carboxy)butyl-glycero-3-phosphocholine”, “VB-703” for “1-hexadecyl-2-(4′-carboxybutyl)-glycerol-3-phosphocholine) or VB-701 at the doses indicated in FIG. 2, or with solvent (Sol),”, “LPS.” for “lipopolysaccharide (LPS) or were untreated (Unt).”
as §3, with “Heat shock protein (HSP) 90 (Cat. No. 13119; 1:500) was from Santa Cruz Biotechnology (Santa Cruz, Calif., USA).” for “αTubulin (Tub) served as a loading control.”

[3] = tested on: human monocytes (primary CD14+); assay: Chemokine-induced cell migration trans-well assay; assay type: cell-based; conditions: RANTES 100 ng/ml and MCP-1 50 ng/ml, 2-4 hours, FACS count
Procedure: as §1
Cells (10^6/ml) were pretreated for 20 min with VB-201 or VB-701 at the doses indicated in FIG. 5, or with solvent (Sol).
To test for chemokine-induced cell migration, RANTES (100 ng/ml; Cat. No. 300-06, PeproTech, Israel) and MCP-1 (50 ng/ml; Cat. No. 300-04, PeproTech, Israel) were dissolved in RPMI-1640 medium supplemented with 0.5% fetal bovine serum (FBS) and placed at the lower chamber of QCM 24-well, […], migration assay plates (Corning-Costar, Corning, N.Y.). Cells (3×10^5) were seeded in the upper chamber and incubated for 2-4 hours. Subsequently, the number of cells which migrated to the lower compartment was determined by fluorescence-activated cell sorting (FACS).

[4] = tested on: LPS (TLR4)-stimulated human monocytes (primary CD14+); assay: IL-12/23p40 ELISA, LPS (TLR4)-stimulated monocytes; assay type: cell-based; conditions: 1 hour pretreatment, 24 hour 100 ng/ml LPS, ELISA of supernatant
Procedure: (§5) Human monocytes were obtained as described in Example 9 and FIG. 9A-9B. Human monocytes were seeded (10^6/ml) and pretreated for 1 hour with VB-201, VB-701 or VB-702, followed by 24 hour activation with 100 ng/ml LPS from Escherichia coli strain 055:B5 (Sigma, Israel) (FIG. 9A) or 300 ng/ml Pam3CSK4 (InvivoGen, San Diego, Calif., USA) (FIG. 9B) to induce cytokine production. IL-12/23p40 concentration in the supernatant was then measured by ELISA (R&D systems, Cat. No. DY1240). Cells activated with solvent (0.5% ethanol in PBS) were used as a control.

[5] = tested on: Pam3CSK4 (TLR2)-stimulated human monocytes (primary CD14+); assay: IL-12/23p40 ELISA, Pam3CSK4 (TLR2)-stimulated monocytes; assay type: cell-based; conditions: 1 hour pretreatment, 24 hour 300 ng/ml Pam3CSK4, ELISA of supernatant
Procedure: as §5

[6] = tested on: RANTES-induced signaling in human monocytes (primary CD14+); assay: RANTES-induced signaling, western blot; assay type: cell-based; conditions: RANTES 100 ng/ml for 15 minutes
Procedure: as §2
Human monocytes were obtained, treated and analyzed by western blot as described in Example 9 and FIG. 7, except that cells were induced with RANTES (100 ng/ml; Cat. No. 300-06, PeproTech, Israel) for 15 minutes. […] Accordingly, VB-702 and VB-201 inhibit RANTES-induced signaling in human monocytes (primary CD14+).

[7] = tested on: MCP-1-induced signaling in human monocytes (THP-1 cell line); assay: MCP-1-induced signaling, western blot; assay type: cell-based; conditions: 20 min pretreatment, 50 ng/ml MCP1, THP-1
Procedure: THP-1 cells (10^6/ml) were pretreated for 20 min with VB-201 or VB-701 at the doses indicated in FIG. 4, or with solvent, followed by activation with 50 ng/ml MCP1, or were untreated (“Unt”). Cells were washed and resuspended in lysis buffer containing 1:100 dithiothreitol (DTT), phosphatase and protease inhibitors (Thermo Scientific). Samples were loaded onto a precast Criterion TGX gel (Bio-Rad, Hemel Hempstead, UK) and transferred onto nitrocellulose membrane. Blots were blocked with 5% milk or BSA in Tris buffered saline and Tween 20 (TBST) for 1 h, followed by incubation with primary and secondary antibodies. Membranes were developed using an ECL kit (Thermo Scientific). The following antibodies were used for immunoblotting:
Primary antibodies: p-ERK1/2 (Cat. No. M8159; 1:10000) was purchased from Sigma (Israel). p-AKT (Cat. No. 4060; 1:1000) was purchased from Cell Signaling Technology (Danvers, Mass.). αTubulin served as a loading control and was purchased from Sigma (Israel).
as §4

[8] = tested on: PGN (TLR2)-induced signaling in human monocytes (THP-1 cell line); assay: PGN (TLR2)-induced signaling, western blot; assay type: cell-based; conditions: 20 min pretreatment, 20 μg/ml PGN for 15 minutes
Procedure: The monocytic THP-1 cell line was purchased from the American Type Tissue Culture Collection (ATCC Cat. No. TIB-202). Cells (10^6/ml) were pretreated for 20 min with VB-201 or VB-701 at the doses indicated in FIG. 3, or with solvent, followed by activation with 20 μg/ml peptidoglycan (PGN) (InvivoGen, San Diego, Calif.) for 15 minutes, or were untreated (“Unt”). Cells were washed and resuspended in lysis buffer containing 1:100 dithiothreitol (DTT), phosphatase and protease inhibitors (Thermo Scientific). Samples were loaded onto a precast Criterion TGX gel (Bio-Rad, Hemel Hempstead, UK) and transferred onto nitrocellulose membrane. Blots were blocked with 5% milk or BSA in Tris buffered saline and Tween 20 (TBST) for 1 h, followed by incubation with primary and secondary antibodies. Membranes were developed using an ECL kit (Thermo Scientific). The following antibodies were used for immunoblotting:
Primary antibodies: p-p38 (Cat. No. 4511; 1:1000) and p-IKK (Cat. No. 2697; 1:1000) were from Cell Signaling Technology (Danvers, Mass., USA). p-ERK1/2 (Cat. No. M8159; 1:10000) was purchased from Sigma (Israel). αTubulin served as a loading control.
as §4

T1 sequence (O00206 24-839): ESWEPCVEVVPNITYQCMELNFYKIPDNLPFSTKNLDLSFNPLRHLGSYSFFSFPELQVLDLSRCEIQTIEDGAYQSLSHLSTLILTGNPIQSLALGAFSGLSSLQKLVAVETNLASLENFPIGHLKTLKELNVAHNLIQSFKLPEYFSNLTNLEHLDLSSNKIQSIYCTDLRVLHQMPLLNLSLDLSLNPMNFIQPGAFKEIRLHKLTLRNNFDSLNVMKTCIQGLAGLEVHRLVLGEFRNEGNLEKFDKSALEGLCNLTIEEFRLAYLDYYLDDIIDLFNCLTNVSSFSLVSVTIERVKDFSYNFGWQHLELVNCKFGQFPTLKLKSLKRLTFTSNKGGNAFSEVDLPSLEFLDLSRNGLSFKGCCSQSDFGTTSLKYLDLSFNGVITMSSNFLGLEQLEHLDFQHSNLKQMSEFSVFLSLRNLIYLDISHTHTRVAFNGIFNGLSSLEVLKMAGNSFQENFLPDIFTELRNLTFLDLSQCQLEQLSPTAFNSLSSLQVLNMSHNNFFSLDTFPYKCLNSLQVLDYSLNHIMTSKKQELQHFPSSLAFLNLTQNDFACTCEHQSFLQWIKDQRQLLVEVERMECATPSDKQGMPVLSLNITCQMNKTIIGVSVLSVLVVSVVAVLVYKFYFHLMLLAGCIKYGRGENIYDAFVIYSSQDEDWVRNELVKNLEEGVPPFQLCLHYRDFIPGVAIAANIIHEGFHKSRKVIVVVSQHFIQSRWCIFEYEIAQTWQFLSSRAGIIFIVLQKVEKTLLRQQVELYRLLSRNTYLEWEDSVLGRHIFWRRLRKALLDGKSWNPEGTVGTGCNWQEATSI
T1 sequence (Q9Y6Y9 17-160 limits assumed): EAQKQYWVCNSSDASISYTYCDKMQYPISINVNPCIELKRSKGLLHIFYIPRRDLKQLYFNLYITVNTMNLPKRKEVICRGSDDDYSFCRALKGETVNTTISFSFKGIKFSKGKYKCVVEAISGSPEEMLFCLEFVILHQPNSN

Compound | LPS-biotin binding to human monocytes (primary CD14+) (TLR4 complex) | SDF1-induced migration of human monocytes (THP-1 cell line) [1] | formation of p-ERK and p-AKT induced by LPS ([2]; LPS activation) | chemokine-induced migration of human monocytes [3] | IL-12p40 levels, LPS (TLR4)-stimulated [4] | IL-12p40 levels, Pam3CSK4 (TLR2)-stimulated [5] | formation of p-IKK, p-ERK and p-p38 induced by LPS [2] | formation of p-ERK induced by RANTES [6] | formation of p-AKT and p-ERK induced by MCP1 [7] | formation of p-IKK, p-ERK and p-p38 induced by PGN [8]
CCCCCCCCCCC(CCCCCCCC)COCC(COP(=O)([O-])OCC[n+]1ccccc1)OCCCCC(=O)OC (centres unmarked) [VB-705, 1-(2′-octyl)dodecyl-2-(4′-carboxymethyl)butyl-glycero-sn-3-phosphoric acid pyridiniumethyl ester] | inhibits | does not inhibit | inhibit |  |  |  |  |  |  | 
CCCCCCCCCCCCCCCCCCCCOCC(COP(=O)([O-])OCC[n+]1ccccc1)OCCCCC(=O)O (centres unmarked) [VB-702, 1-eicosanyl-2-(4′-carboxy)butyl-glycero-sn-3-phosphoric acid pyridiniumethyl ester] |  |  |  | inhibit | inhibit | inhibit | inhibit | inhibit |  | 
CCCCCCCCCCCCCCCCOCC(COP(=O)([O-])OCC[n+]1ccccc1)OCCCCC(=O)O (centres unmarked) [VB-701, 1-hexadecyl-2-(4′-carboxy)butyl-glycero-sn-3-phosphoric acid pyridiniumethyl ester] |  |  |  | inhibit | inhibit | inhibit | inhibit |  | inhibit | inhibit
